What was measured:
Assay type in all cases: in vivo, mouse
MRL/lpr mice [1] = assay: Urinalysis: total urine protein (proteinuria), MRL/lpr mice
Protocol: Urine samples are acid precipitated for total protein recovery and analysis. Samples for which enough urine remained are used for Uristix® leukouria analysis. Briefly, a standard protein solution is prepared from normal mouse sera and is used as a standard for mouse urinary protein assay by turbidity. Standard preparation is as follows: 0, 5, 10, 15, 20, 30, 40, and 50 μL of a 4 mg/mL mouse sera standard protein solution as provided in the kit are added in duplicate into two columns. PBS is added to individual wells to adjust the final volume to 50 μL. For urine sample preparation, urine samples are centrifuged at 9880×g for 3 minutes using a tabletop micro-centrifuge. Urine supernatant (1-50 μL) is added in duplicate. PBS is added to adjust the volume to 50 μL total. For the turbidity assay: 25 μL of 0.1 N HCl is added into blank columns and 250 μL of 3% sulfosalicyclic acid into the test columns. The microplate is incubated for 10 minutes at RT and plates are read using an ELISA reader with single beam at 450 nm. For the Uristix® strip assay, strips are laid out and labeled. Twenty microliters of urine are placed onto each test strip square and incubated for at least 30 seconds before the result is recorded. For all total urine analysis plate-based assays, values below the limit of detection set by the lowest point along the standard or set by the manufacturer are considered out of range and are not estimated, but assumed the lowest point along the standard curve for that particular assay.

NZM mice [2] = assay: Splenomegaly (spleen mass), NZM mice (Example 2)
MRL/lpr mice [3] = assay: Splenomegaly (spleen mass), MRL/lpr mice
Protocol: FIG. 5 depicts splenomegaly for MRL/lpr mice across treatment groups for the study duration. MRL/lpr mice were treated as outlined in the legend. The spleen masses for all mice that survived until the end of the experiment are graphed. Each symbol represents the spleen weight for one mouse at 25 weeks of age.
Mice are tracked on an individual basis.
Vehicle alone is provided orally twice weekly (p.o.). Both proteasome inhibitors are suspended in the vehicle solution. […] In addition, urine proteinuria is determined for all animals.
Vehicle was 3% DMSO/10% Solutol/87% PBS.

MRL/lpr mice [4] = assay: Renal histopathology scoring (kidney IC-GN), MRL/lpr mice
Protocol: For histological analyses, the left kidney from each animal is removed and fixed in 10% buffered neutral 10% formalin (EMD) for 48 hours on an orbital rocker at 25° C., then washed overnight with running dH2O and stored in 70% ethanol at 4° C. until ready to be processed. Kidney stains used for histological analyses included hematoxylin and eosin (H&E), Periodic Acid Schiff (PAS) and Trichrome stains (Wistar Institute, Philadelphia, Pa.). All 3 stained sections are used by the pathologist for scoring purposes. All histological scoring is performed blinded and by an independent board certified veterinary medical pathologist (Julie Engiles, VMD, DACVP). Multiple stains are used to determine score values. Images in FIG. 17 show worst affected area of section selected blindly by the pathologist.
Kidney IC-GN Scoring Method (Smith, Dong et al. 2007):
1. Glomerular cellularity—Score 1-5: Null, low, moderate, high, severe
2. Glomerular necrosis—Score 1-5: Null, low, moderate, high, severe
3. Glomerulosclerosis—Score 1-5: Null, low, moderate, high, severe
4. Interstitial infiltration—Score 1-5: Null, low, moderate, high, severe
5. Tubular atrophy—Score 1-5: Null, low, moderate, high, severe
6. Interstitial fibrosis—Score 1-5: Null, low, moderate, high, severe
7. Vasculitis—Score 1-5: Null, low, moderate, high, severe
Specific Pathologist Definitions: • Necrosis is defined by the presence of nuclear debris/pyknosis within the glomerular tuft indicative of “necrosis.” In many samples, this is a very mild, rare finding within only a very few segments of the glomerular tuft. Also consider effacement of the glomerular tuft by PAS positive, Trichrome negative material necrosis. • Glomerular sclerosis is defined by increased fibroplasia or fibrosis within the glomerular tuft or capsule. […] Most of the vascular changes are mild and could be considered “arteriosclerosis” characterized by proliferation of the smooth muscle cells, and hyalinization of the extracellular matrix. This change may reflect hypertension secondary to glomerular pathology. In very few animals is there overt “vasculitis.” Most inflammatory changes are within the walls of the blood vessels, with little to no damage to the endothelium, and no overt hemorrhage/fibrin leakage. Many also have perivascular rims of fibroblasts.

NZM mice [5] = assay: Antinuclear antibody (ANA) ELISA (anti-chromatin, anti-Smith Ag, anti-dsDNA), serum of NZM mice (Example 2)
NZM mice [6] = assay: Body weight progression, NZM mice (Example 2)

CC(C)C[C@H](NC(=O)[C@@H](NC(=O)c1cccc(-c2ccccc2)n1)[C@@H](C)O)B(O)O [COMPOUND A, [(1R)-1-[[(2S,3R)-3-hydroxy-2-[6-phenyl-pyridine-2-carbonyl)amino]-1-oxobutyl]amino]-3-methylbutylboronic acid]
Urine AUC proteinuria, percent change vs vehicle (MRL/lpr mice [1]; G1: 3 mg/kg iv, 1× wk): −60% | Urine AUC proteinuria, percent change vs vehicle (MRL/lpr mice [1]; G2: 3 mg/kg iv, 2× wk): −70% | Urine AUC proteinuria, percent change vs vehicle (MRL/lpr mice [1]; G3: 10 mg/kg po, 2× wk): −71% | total urine protein reduction relative to vehicle (MRL/lpr mice [1]; Group 1): 60% | total urine protein reduction relative to vehicle (MRL/lpr mice [1]; Group 2): 70% | total urine protein reduction relative to vehicle (MRL/lpr mice [1]; Group 3): 71% | Spleen mass EOS, percent change vs vehicle (NZM mice [2]; G1 3 mg/kg ip, 1× wk): −37% | splenomegaly decrease vs vehicle at EOS (NZM mice [2]; G1: 3 mg/kg ip once per week): 37% | Spleen mass EOS, percent change vs vehicle (NZM mice [2]; G2 3 mg/kg ip, 2× wk): −34% | splenomegaly decrease vs vehicle at EOS (NZM mice [2]; G2: 3 mg/kg ip twice weekly): 34% | spleen mass compared to once-a-week bortezomib (NZM mice [2]; p<0.05): reduced spleen mass significantly | splenomegaly decrease vs vehicle at the end of the study (MRL/lpr mice [3]; 3 mg/kg iv twice weekly): 74% | EOS spleen mass, percent change vs vehicle (MRL/lpr mice [3]; G1: 3 mg/kg iv, 1× wk): −67% | EOS spleen mass, percent change vs vehicle (MRL/lpr mice [3]; G2: 3 mg/kg iv, 2× wk): −74% | EOS spleen mass, percent change vs vehicle (MRL/lpr mice [3]; G3: 10 mg/kg po, 2× wk): −56% | decrease in average renal pathology score vs vehicle (MRL/lpr mice [4]; COMPOUND A treatment groups): 1.55-1.86 fold | EOS glomerular cellularity, percent change vs vehicle (MRL/lpr mice [4]; G1: 3 mg/kg iv, 1× wk): −41% | EOS glomerular necrosis, percent change vs vehicle (MRL/lpr mice [4]; G1: 3 mg/kg iv, 1× wk): −38% | EOS glomerulosclerosis, percent change vs vehicle (MRL/lpr mice [4]; G1: 3 mg/kg iv, 1× wk): −39% | EOS interstitial infiltration, percent change vs vehicle (MRL/lpr mice [4]; G1: 3 mg/kg iv, 1× wk): −42% | EOS vasculitis, percent change vs vehicle (MRL/lpr mice [4]; G1: 3 mg/kg iv, 1× wk): −33% | Kidney EOS interstitial fibrosis, percent change vs vehicle (MRL/lpr mice [4]; G1: 3 mg/kg iv, 1× wk): −31% | Kidney EOS tubular atrophy, percent change vs vehicle (MRL/lpr mice [4]; G1: 3 mg/kg iv, 1× wk): −35% | EOS glomerular cellularity, percent change vs vehicle (MRL/lpr mice [4]; G2: 3 mg/kg iv, 2× wk): −36% | EOS glomerular necrosis, percent change vs vehicle (MRL/lpr mice [4]; G2: 3 mg/kg iv, 2× wk): −47% | EOS glomerulosclerosis, percent change vs vehicle (MRL/lpr mice [4]; G2: 3 mg/kg iv, 2× wk): −45% | EOS interstitial infiltration, percent change vs vehicle (MRL/lpr mice [4]; G2: 3 mg/kg iv, 2× wk): −61% | EOS vasculitis, percent change vs vehicle (MRL/lpr mice [4]; G2: 3 mg/kg iv, 2× wk): −45% | Kidney EOS interstitial fibrosis, percent change vs vehicle (MRL/lpr mice [4]; G2: 3 mg/kg iv, 2× wk): −42% | Kidney EOS tubular atrophy, percent change vs vehicle (MRL/lpr mice [4]; G2: 3 mg/kg iv, 2× wk): −46% | EOS glomerular cellularity, percent change vs vehicle (MRL/lpr mice [4]; G3: 10 mg/kg po, 2× wk): −33% | EOS glomerular necrosis, percent change vs vehicle (MRL/lpr mice [4]; G3: 10 mg/kg po, 2× wk): −31% | EOS glomerulosclerosis, percent change vs vehicle (MRL/lpr mice [4]; G3: 10 mg/kg po, 2× wk): −33% | EOS interstitial infiltration, percent change vs vehicle (MRL/lpr mice [4]; G3: 10 mg/kg po, 2× wk): −50% | EOS vasculitis, percent change vs vehicle (MRL/lpr mice [4]; G3: 10 mg/kg po, 2× wk): −43% | Kidney EOS interstitial fibrosis, percent change vs vehicle (MRL/lpr mice [4]; G3: 10 mg/kg po, 2× wk): −27% | Kidney EOS tubular atrophy, percent change vs vehicle (MRL/lpr mice [4]; G3: 10 mg/kg po, 2× wk): −42% | renal interstitial infiltration reduction vs vehicle (MRL/lpr mice [4]; all 3 COMPOUND A treatment groups): up to 61% | ANA Smith Ag AUC, percent change vs vehicle (NZM mice [5]; G1 3 mg/kg ip, 1× wk): −88% | ANA chromatin AUC, percent change vs vehicle (NZM mice [5]; G1 3 mg/kg ip, 1× wk): −63% | ANA dsDNA AUC, percent change vs vehicle (NZM mice [5]; G1 3 mg/kg ip, 1× wk): −21% | ANA Smith Ag AUC, percent change vs vehicle (NZM mice [5]; G2 3 mg/kg ip, 2× wk): 8% | ANA chromatin AUC, percent change vs vehicle (NZM mice [5]; G2 3 mg/kg ip, 2× wk): −79% | ANA dsDNA AUC, percent change vs vehicle (NZM mice [5]; G2 3 mg/kg ip, 2× wk): −68% | serum anti-dsDNA Ab decrease vs vehicle (NZM mice [5]; once weekly COMPOUND A): 21% | serum anti-Smith Ag Ab decrease vs vehicle (NZM mice [5]; once weekly COMPOUND A (3 mg/kg ip)): 88% | serum anti-chromatin Ab decrease vs vehicle (NZM mice [5]; twice weekly (3 mg/kg ip)): 79% | serum anti-dsDNA Ab decrease vs vehicle (NZM mice [5]; twice weekly COMPOUND A): 68% | serum anti-chromatin Ab decrease vs vehicle (NZM mice [5]; weekly (3 mg/kg ip)): 63% | Body mass AUC, percent change vs vehicle (NZM mice [6]; G1 3 mg/kg ip, 1× wk): +9% | body weight increase compared to vehicle (NZM mice [6]; G1: 3 mg/kg ip once per week): 9% | Body mass AUC, percent change vs vehicle (NZM mice [6]; G2 3 mg/kg ip, 2× wk): +10% | body weight increase compared to vehicle (NZM mice [6]; G2: 3 mg/kg ip twice weekly): 10%

— patent publication US9340559B2, “Proteasome inhibitor delanzomib for use in the treatment of lupus” (Cephalon, Inc., priority 2011, dated 2016)
